Reference: PubChem BioAssay AID248 (DTP/NCI, 2004)
Several values for one entry are separate records, joined by “and”; a condition that tells them apart may be missing. Equal entries are not always repeated. Toxic doses and inconclusive results are not listed. No stated cut-off is given here; in the data, active means T/C of 150% or more; inactive means T/C below 125%.

Test system: L1210 leukemia ip in BDF1 mice, survival T/C
Assay: NCI In Vivo Anticancer Drug Screen. Data for tumor model L1210 Leukemia (intraperitoneal) in B6D2F1 (BDF1) mice
Settings: endpoint: mean survival time, higher = longer survival
How it was run: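 Antitumor effect is assessed in tumor-bearing animals. Survival in the compound arm is compared with a vehicle-dosed control arm and expressed as their quotient.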

[1] = dose: 100.0 mg/kg/injection, schedule: Q01DX001 (ip), vehicle: Klucel (hydroxypropylcellulose) (HPC)
[2] = dose: 100.0 mg/kg/injection, schedule: Q01DX001 (ip), vehicle: saline
[3] = dose: 100.0 mg/kg/injection, schedule: Q04DX003 (ip), vehicle: Klucel (hydroxypropylcellulose) (HPC)
[4] = dose: 200.0 mg/kg/injection, schedule: Q01DX001 (ip), vehicle: Klucel (hydroxypropylcellulose) (HPC)
[5] = dose: 200.0 mg/kg/injection, schedule: Q01DX001 (ip), vehicle: carboxymethylcellulose (CMC)
[6] = dose: 200.0 mg/kg/injection, schedule: Q01DX001 (ip), vehicle: saline
[7] = dose: 200.0 mg/kg/injection, schedule: Q04DX003 (ip), vehicle: Klucel (hydroxypropylcellulose) (HPC)
[8] = dose: 400.0 mg/kg/injection, schedule: Q01DX001 (ip), vehicle: saline
[9] = dose: 400.0 mg/kg/injection, schedule: Q04DX003 (ip), vehicle: Klucel (hydroxypropylcellulose) (HPC)
[10] = dose: 400.0 mg/kg/injection, schedule: Q01DX001 (ip), vehicle: Klucel (hydroxypropylcellulose) (HPC)
[11] = dose: 25.0 mg/kg/injection, schedule: Q01DX009 (ip), vehicle: saline with Tween-80
[12] = dose: 50.0 mg/kg/injection, schedule: Q01DX009 (ip), vehicle: saline with Tween-80
[13] = dose: 50.0 mg/kg/injection, schedule: Q04DX003 (ip), vehicle: saline with Tween-80
[14] = dose: 100.0 mg/kg/injection, schedule: Q01DX009 (ip), vehicle: saline with Tween-80
[15] = dose: 100.0 mg/kg/injection, schedule: Q04DX003 (ip), vehicle: saline with Tween-80
[16] = dose: 200.0 mg/kg/injection, schedule: Q01DX009 (ip), vehicle: saline with Tween-80
[17] = dose: 50.0 mg/kg/injection, schedule: Q01DX009 (ip), vehicle: Klucel (hydroxypropylcellulose) (HPC)
[18] = dose: 100.0 mg/kg/injection, schedule: Q01DX009 (ip), vehicle: Klucel (hydroxypropylcellulose) (HPC)
[19] = dose: 12.5 mg/kg/injection, schedule: Q01DX009 (ip), vehicle: Klucel (hydroxypropylcellulose) (HPC)
[20] = dose: 25.0 mg/kg/injection, schedule: Q01DX009 (ip), vehicle: Klucel (hydroxypropylcellulose) (HPC)
[21] = dose: 100.0 mg/kg/injection, schedule: Q01DX009 (ip), vehicle: saline
[22] = dose: 100.0 mg/kg/injection, schedule: Q04DX003 (ip), vehicle: saline
[23] = dose: 200.0 mg/kg/injection, schedule: Q01DX009 (ip), vehicle: saline
[24] = dose: 200.0 mg/kg/injection, schedule: Q04DX003 (ip), vehicle: saline
[25] = dose: 200.0 mg/kg/injection, schedule: Q01DX009 (ip), vehicle: Klucel (hydroxypropylcellulose) (HPC)
[26] = dose: 400.0 mg/kg/injection, schedule: Q01DX009 (ip), vehicle: Klucel (hydroxypropylcellulose) (HPC)

Measured: T/C

CC(C)C(N)C(=O)O (stereo not drawn)
inactive: dose: 50.0 mg/kg/injection, schedule: Q01DX001 (ip), vehicle: Klucel (hydroxypropylcellulose) (HPC) 97 % of control | dose: 75.0 mg/kg/injection, schedule: Q01DX001 (ip), vehicle: acetone 97 % of control | [1] 100 % of control | dose: 100.0 mg/kg/injection, schedule: Q01DX001 (ip), vehicle: carboxymethylcellulose (CMC) 96 % of control | [2] 95 % of control | [3] 98 % of control | dose: 150.0 mg/kg/injection, schedule: Q01DX001 (ip), vehicle: acetone 92 % of control | [4] 99 % of control | [5] 96 % of control | [6] 100 % of control | [7] 107 % of control | dose: 300.0 mg/kg/injection, schedule: Q01DX001 (ip), vehicle: acetone 94 % of control | dose: 400.0 mg/kg/injection, schedule: Q01DX001 (ip), vehicle: carboxymethylcellulose (CMC) 94 % of control | [8] 92 % of control | [9] 100 % of control

NC(=O)c1c([N+](=O)[O-])ncn1C1OC(CO)C(O)C1O (stereo not drawn)
inactive: [2] 98 % of control | [6] 102 % of control | [8] 96 % of control

O=c1cc(NCCc2ccccc2)[nH]c(=O)[nH]1
inactive: [1] 93 % of control | [4] 95 % of control | [10] 105 % of control

N#CC1(Cc2ccccc2)c2ccccc2-c2ccccc21
inactive: [3] 98 % of control | [7] 89 % of control | [9] 91 % of control

N#CC(C(N)=O)c1ccccc1 (stereo not drawn)
inactive: [11] 86 % of control | dose: 25.0 mg/kg/injection, schedule: Q04DX003 (ip), vehicle: saline with Tween-80 99 % of control | [12] 94 % of control | [13] 100 % of control | [14] 90 % of control | [15] 98 % of control and 100 % of control

C/C(C(=O)O)=C1\N=C(N)NC1=O
inactive: [1] 98 % of control | [4] 96 % of control | [10] 102 % of control

CSc1cc(C)c(OC(=O)Nc2ccccc2F)c(CO)c1
inactive: [14] 97 % of control | [16] 98 % of control | dose: 400.0 mg/kg/injection, schedule: Q01DX009 (ip), vehicle: saline with Tween-80 114 % of control

CCCCCCCCCCC(=O)CCC
inactive: [17] 92 % of control | [18] 97 % of control | [3] 95 % of control and 98 % of control | [7] 90 % of control | [9] 95 % of control and 100 % of control

CC1=CCCC(C)C12CCC(C(C)(C)O)C2 (stereo not drawn)
inactive: dose: 50.0 mg/kg/injection, schedule: Q01DX009 (ip), vehicle: other 104 % of control | dose: 100.0 mg/kg/injection, schedule: Q01DX009 (ip), vehicle: other 98 % of control | dose: 100.0 mg/kg/injection, schedule: Q04DX003 (ip), vehicle: saline sonified 103 % of control | dose: 200.0 mg/kg/injection, schedule: Q01DX009 (ip), vehicle: other 100 % of control | dose: 200.0 mg/kg/injection, schedule: Q04DX003 (ip), vehicle: saline sonified 107 % of control

NC1CCC(CC2CCCCCC2)CC1 (stereo not drawn)
inactive: dose: 6.25 mg/kg/injection, schedule: Q01DX009 (ip), vehicle: Klucel (hydroxypropylcellulose) (HPC) 107 % of control | [19] 100 % of control | [20] 97 % of control and 98 % of control

C=C(Br)CNC(=O)c1ccccc1
inactive: [19] 97 % of control | [20] 108 % of control | [17] 90 % of control | [1] 101 % of control | [4] 106 % of control

O=C(/C=C/c1ccccc1)C1(c2ccccc2)CC1
inactive: [1] 98 % of control | [4] 100 % of control | [10] 98 % of control

Cc1ccc[nH]c1=O
inactive: dose: 50.0 mg/kg/injection, schedule: Q01DX009 (ip), vehicle: saline 95 % of control | [21] 93 % of control | [22] 107 % of control | [23] 91 % of control | [24] 109 % of control

Cc1ccc(N=Nc2ccc(C)cc2NC(=O)c2cccc3ccccc23)cc1
inactive: [18] 92 % of control | dose: 100.0 mg/kg/injection, schedule: Q04DX002 (ip), vehicle: Klucel (hydroxypropylcellulose) (HPC) 104 % of control | [25] 100 % of control | dose: 200.0 mg/kg/injection, schedule: Q04DX002 (ip), vehicle: Klucel (hydroxypropylcellulose) (HPC) 96 % of control | [26] 95 % of control | dose: 400.0 mg/kg/injection, schedule: Q04DX002 (ip), vehicle: Klucel (hydroxypropylcellulose) (HPC) 93 % of control

COc1cccc(/C=N\NC(=O)CNC(=O)Nc2ccc(Cl)c(Cl)c2)c1OC
inactive: [12] 93 % of control | [14] 93 % of control | [16] 86 % of control

O=C1C2CCC(C2)C1C(O)(C(F)(F)F)C(F)(F)F (stereo not drawn)
inactive: [11] 101 % of control | [12] 100 % of control | [13] 101 % of control | [14] 91 % of control | [15] 98 % of control | dose: 200.0 mg/kg/injection, schedule: Q04DX003 (ip), vehicle: saline with Tween-80 91 % of control

CCCCCCCCNCCOC(=O)c1ccc(N(CC)CC)cc1
inactive: dose: 75.0 mg/kg/injection, schedule: Q01DX001 (ip), vehicle: carboxymethylcellulose (CMC) 91 % of control | dose: 150.0 mg/kg/injection, schedule: Q01DX001 (ip), vehicle: carboxymethylcellulose (CMC) 97 % of control

Nc1ccc(F)cc1[N+](=O)[O-]
inactive: [17] 106 % of control | [18] 93 % of control | [3] 105 % of control | [25] 95 % of control | [7] 94 % of control | [26] 90 % of control | [9] 91 % of control

CN(C)c1ncnc2c1ncn2C1CCCO1 (stereo not drawn)
inactive: dose: 25.0 mg/kg/injection, schedule: Q01DX Z (ip), vehicle: methylcellulose (MC) 97 % of control | dose: 50.0 mg/kg/injection, schedule: Q01DX Z (ip), vehicle: methylcellulose (MC) 92 % of control

COc1ccc(OC)c(/C=C2\N=C(c3ccccc3)OC2=O)c1
inactive: dose: 100.0 mg/kg/injection, schedule: Q01DX001 (ip), vehicle: acetone 97 % of control | [21] 91 % of control | [22] 100 % of control | dose: 200.0 mg/kg/injection, schedule: Q01DX001 (ip), vehicle: acetone 101 % of control | [23] 94 % of control | [24] 96 % of control | dose: 400.0 mg/kg/injection, schedule: Q01DX001 (ip), vehicle: acetone 92 % of control | dose: 400.0 mg/kg/injection, schedule: Q01DX009 (ip), vehicle: saline 93 % of control | dose: 400.0 mg/kg/injection, schedule: Q04DX003 (ip), vehicle: saline 98 % of control

O=C(O)COc1cc(Cl)cc(Cl)c1
inactive: dose: 50.0 mg/kg/injection, schedule: Q04DX002 (ip), vehicle: other 91 % of control | dose: 100.0 mg/kg/injection, schedule: Q04DX002 (ip), vehicle: other 94 % of control | dose: 200.0 mg/kg/injection, schedule: Q04DX002 (ip), vehicle: other 108 % of control

CC(C#N)NCc1ccc2c(c1)OCO2 (stereo not drawn)
inactive: dose: 50.0 mg/kg/injection, schedule: Q01DX001 (ip), vehicle: carboxymethylcellulose (CMC) 112 % of control | [5] 96 % of control

Brc1ccc2c(c1)oc1ccccc12
inactive: [18] 102 % of control | [3] 105 % of control | [25] 97 % of control | [7] 107 % of control | [26] 100 % of control | [9] 91 % of control
